TGI and GI50 data for 11 compounds are collected here from PubChem BioAssay (NCI).

Among the test systems are 786-0 renal; DU-145 prostate; EKVX NSCLC; IGROV1 ovarian; K-562 leukemia; NCI-H460 lung; SK-OV-3 ovarian; SN12C renal; LOX IMVI melanoma; HOP-92 NSCLC.
Experiment in all cases: NCI tumour cell line growth inhibition, 48 h

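Step 1: Grow cells in 96-well plates. Step 2: Expose to compound for 48 hours at 5 concentrations. Step 3: Interpolate endpoints linearly; if unreached, use highest concentration. GI50: concentration for 50% inhibition of growth. At the TGI there is no net growth.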

With `CCCCS(=O)(=O)CCC(N)C(=O)O` (stereo unspecified), the TGI in the assay on 786-0 renal, in the assay with DU-145 prostate, in the assay with EKVX NSCLC, in the assay on IGROV1 ovarian, with K-562 leukemia and with NCI-H460 lung was > 100 µM throughout. In addition, the TGI in the assay on SK-OV-3 ovarian and in the assay with SN12C renal was > 100 µM in each case.

As for `Cc1c(COc2cc(OCc3cccc(C#N)c3)c(CN3C[C@H](O)C[C@@H]3C(=O)O)cc2Cl)cccc1-c1ccc2c(c1)OCCO2`, the GI50 in the assay on 786-0 renal was 3.87 µM; with DU-145 prostate, 24.4 µM; with EKVX NSCLC it was 18.1 µM; in the assay on IGROV1 ovarian it was 16.3 µM; with K-562 leukemia, 3.43 µM; in the assay with LOX IMVI melanoma, 4.28 µM. Besides, the figures for the GI50 with NCI-H460 lung, in the assay on SK-OV-3 ovarian and in the assay with SN12C renal were 14 µM, 19.4 µM and 15.7 µM, respectively. The TGI in the assay with 786-0 renal was 15.3 µM; with DU-145 prostate, 62.1 µM; with EKVX NSCLC it was 41.2 µM; in the assay on IGROV1 ovarian it was 32.5 µM; in the assay on K-562 leukemia it was > 100 µM; in the assay on LOX IMVI melanoma it was 16 µM. The TGI in the assay on NCI-H460 lung was determined as 29 µM; in the assay on SK-OV-3 ovarian it was 37.7 µM; in the assay on SN12C renal it was 29.5 µM.

Take `Cn1ccnc1C(=O)/C=C/c1ccccc1`: the GI50 with 786-0 renal was 4.34 µM; in the assay on DU-145 prostate, 2.8 µM; in the assay on EKVX NSCLC, 11.6 µM; in the assay with IGROV1 ovarian, 2.66 µM; with K-562 leukemia, 2.74 µM; with LOX IMVI melanoma, 2.99 µM. Also, the results for the GI50 in the assay with NCI-H460 lung, with SK-OV-3 ovarian and with SN12C renal were 3.2 µM, 4.55 µM and 3 µM, respectively. Moreover, the TGI in the assay with 786-0 renal amounted to 16.6 µM; in the assay with DU-145 prostate, 12.7 µM; in the assay on EKVX NSCLC it was 25.1 µM; with IGROV1 ovarian it was 14 µM; in the assay on K-562 leukemia, 6.86 µM; with LOX IMVI melanoma, 14.3 µM. Also, the TGI in the assay on NCI-H460 lung was determined as 11.4 µM; in the assay with SK-OV-3 ovarian, 35.9 µM; in the assay with SN12C renal it was 17.3 µM.

As to `C1=CC=C2NCCCNC3=CC=CC=CC3=NCCCN=C2C=C1`, the TGI in the assay on 786-0 renal, with EKVX NSCLC, with HOP-92 NSCLC, in the assay with IGROV1 ovarian, with K-562 leukemia and with LOX IMVI melanoma was > 100 µM each time. Further, the TGI in the assay with NCI-H460 lung, in the assay with SK-OV-3 ovarian and in the assay with SN12C renal was > 100 µM each time.

Regarding `O=C(Cn1ccnc1[N+](=O)[O-])c1ccc(F)cc1`, the TGI in the assay on 786-0 renal, with EKVX NSCLC, with HOP-92 NSCLC, with IGROV1 ovarian, in the assay on K-562 leukemia and in the assay on LOX IMVI melanoma was > 100 µM each time. For the same compound, the TGI in the assay with NCI-H460 lung, with SK-OV-3 ovarian and in the assay with SN12C renal was > 100 µM each time.

For the compound `COc1cc(OC)c(C2CC=Cc3c(OC)cc(OC)c(OC)c32)cc1OC` (stereo unspecified), the TGI with 786-0 renal, with EKVX NSCLC, in the assay with HOP-92 NSCLC, with IGROV1 ovarian, in the assay on K-562 leukemia and in the assay on LOX IMVI melanoma was > 100 µM in each case. The TGI in the assay with NCI-H460 lung, with SK-OV-3 ovarian and in the assay on SN12C renal was > 100 µM each time.

As to `COC(=O)c1c(N)n[nH]c1N`, the TGI in the assay on 786-0 renal, in the assay on EKVX NSCLC, in the assay with HOP-92 NSCLC, in the assay on IGROV1 ovarian, in the assay on K-562 leukemia and in the assay on LOX IMVI melanoma was > 100 µM each time. The TGI with NCI-H460 lung, in the assay with SK-OV-3 ovarian and in the assay with SN12C renal was > 100 µM throughout.

Take `CN(C)CCNC(=O)c1cccc2c1nc(-c1ccccc1)c1ccccc12`: the TGI in the assay on 786-0 renal was 16.6 µM; in the assay with EKVX NSCLC, 25.7 µM; with HOP-92 NSCLC it was 9.24 µM; in the assay with IGROV1 ovarian, 18.2 µM; with K-562 leukemia, 6.32 µM; in the assay with LOX IMVI melanoma, 4.03 µM. The TGI was determined as 13.3 µM in the assay with NCI-H460 lung, 19.6 µM with SK-OV-3 ovarian and 15.2 µM in the assay on SN12C renal.

Consider `O=C(CCC(=O)C(C(=O)c1ccccc1)c1ccccc1)Nc1cccc(C(F)(F)F)c1` (stereo unspecified), for which the TGI in the assay on 786-0 renal, with EKVX NSCLC, in the assay on HOP-92 NSCLC, in the assay with IGROV1 ovarian, in the assay on K-562 leukemia and in the assay with LOX IMVI melanoma was > 100 µM each time. The TGI with NCI-H460 lung, in the assay with SK-OV-3 ovarian and in the assay on SN12C renal was > 100 µM each time.

Regarding `O=C(Nc1nc2ncn(CCNCc3ccccc3)c2c(=O)[nH]1)c1ccccc1`, the TGI with 786-0 renal, in the assay on EKVX NSCLC, with HOP-92 NSCLC, in the assay on IGROV1 ovarian, in the assay with K-562 leukemia and with LOX IMVI melanoma was > 100 µM in each case. In addition, the TGI in the assay on NCI-H460 lung, with SK-OV-3 ovarian and with SN12C renal was > 100 µM each time.

Regarding `CC1C[C@@H]2C(=O)NC(=O)[C@@H]2c2c1c1ccccc1n2C` (stereo partly specified), the TGI in the assay with 786-0 renal, with EKVX NSCLC, in the assay with HOP-92 NSCLC, in the assay on IGROV1 ovarian, in the assay with K-562 leukemia and with LOX IMVI melanoma was > 100 µM throughout. For the same compound, the TGI in the assay with NCI-H460 lung, in the assay with SK-OV-3 ovarian and in the assay with SN12C renal was > 100 µM throughout.
